Reference: patent publication US12410208B2, “(2-acetamidyl)thio-beta-D-galactopyranoside derivatives” (Idorsia Pharmaceuticals Ltd, priority 2020, dated 2025)
Like-named read-outs stand apart in the source and are kept apart here.

Experiments:
[1] = target: biotinylated human Gal-3 (hGal-3) (Homo sapiens, UniProt P17931); assay: Competitive binding assay: biotinylated hGal-3 binding to microplate-adsorbed asialofetuin (ASF), spectrophotometric
Procedure, shortened: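 Competitive binding of biotinylated hGal-3 to plate-adsorbed asialofetuin was measured with serially diluted compounds over 3 h at 4° C. Bound protein was detected with streptavidin-peroxidase and ABTS substrate by absorbance. IC50 values are means of several measurements.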

[2] = target: human Gal-1 (hGal-1) (Homo sapiens, UniProt P09382); assay: Competitive binding assay: biotinylated hGal-1 binding to microplate-adsorbed asialofetuin (ASF), spectrophotometric; conditions: hGal-1 binding to asialofetuin; Table 15; R and S epimers of selected Examples also listed; read-out: IC50 (Galectin-1 inhibition)
Procedure, shortened: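 Biotinylated hGal-1 (300-1000 ng/mL) incubated with compound on asialofetuin-coated plates 3 hours at 4 °C, washed, then streptavidin-peroxidase (80 ng/mL) 1 hour at 4 °C. ABTS substrate read spectrophotometrically; IC50 reported as mean of several measurements.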

[3] = Table 12, hGal-3, read-out: IC50 (Gal-3 inhibition)
[4] = Gal-3 inhibition, Table 4, read-out: IC50
[5] = Gal-3 inhibition, Table 5, read-out: IC50
[6] = Table 10, hGal-3, read-out: IC50 (Gal-3 inhibition)

human Gal-1 (hGal-1), sequence (P09382 whole entry): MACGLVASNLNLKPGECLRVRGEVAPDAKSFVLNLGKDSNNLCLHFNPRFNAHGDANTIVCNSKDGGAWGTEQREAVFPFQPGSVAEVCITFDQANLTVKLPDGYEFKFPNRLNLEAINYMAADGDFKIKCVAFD
biotinylated human Gal-3 (hGal-3), sequence (P17931 whole entry): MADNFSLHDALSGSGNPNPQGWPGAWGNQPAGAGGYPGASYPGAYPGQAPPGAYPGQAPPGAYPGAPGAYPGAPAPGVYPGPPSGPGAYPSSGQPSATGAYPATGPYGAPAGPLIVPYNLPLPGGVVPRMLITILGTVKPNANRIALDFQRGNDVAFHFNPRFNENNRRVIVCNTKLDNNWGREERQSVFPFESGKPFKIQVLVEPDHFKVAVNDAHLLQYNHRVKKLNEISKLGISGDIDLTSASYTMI

IC50 [2] [µM] | Compound | further results
2.06 | CCC(O)(CC)C(S[C@@H]1O[C@H](CO)[C@H](O)[C@H](n2cc(-c3cc(F)c(F)c(F)c3)nn2)[C@H]1O)C(=O)N(C)CC(C)(C)F (stereo partly drawn) [Example 2.32.222., 2-(((2S,3R,4S,5R,6R)-3,5-Dihydroxy-6-(hydroxymethyl)-4-(4-(3,4,5-trifluorophenyl)-1H-1,2,3-triazol-1-yl)tetrahydro-2H-pyran-2-yl)thio)-3-ethyl-N-(2-fluoro-2-methylpropyl)-3-hydroxy-N-methylpentanamide] | IC50 ([1]; Table 6, hGal-3, read-out: IC50 (Gal-3 inhibition)): 0.36 µM
0.73 | CNC(=O)C(S[C@@H]1O[C@H](CO)[C@H](O)[C@H](n2cc(-c3cc(F)c(F)c(F)c3)nn2)[C@H]1OC)C1(O)CCC(F)(F)CC1 (stereo partly drawn) [Example 2.44.248.I., 2-(4,4-Difluoro-1-hydroxycyclohexyl)-2-(((2S,3R,4S,5R,6R)-5-hydroxy-6-(hydroxymethyl)-3-methoxy-4-(4-(3,4,5-trifluorophenyl)-1H-1,2,3-triazol-1-yl)tetrahydro-2H-pyran-2-yl)thio)-N-methylacetamide] | IC50 [1, 3]: 0.49 µM
0.33 | O=C(C(S[C@@H]1O[C@H](CO)[C@H](O)[C@H](n2cc(-c3cc(F)c(F)c(F)c3)nn2)[C@H]1O)C1(O)CCOCC1)N1CCCC1 (stereo partly drawn) [Example 2.41.211., 2-(((2S,3R,4S,5R,6R)-3,5-Dihydroxy-6-(hydroxymethyl)-4-(4-(3,4,5-trifluorophenyl)-1H-1,2,3-triazol-1-yl)tetrahydro-2H-pyran-2-yl)thio)-2-(4-hydroxytetrahydro-2H-pyran-4-yl)-1-(pyrrolidin-1-yl)ethan-1-one] | IC50 [1, 4]: 0.13 µM
0.19 | 2-(((2S,3R,4S,5R,6R)-3,5-Dihydroxy-6-(hydroxymethyl)-4-(4-(3,4,5-trifluorophenyl)-1H-1,2,3-triazol-1-yl)tetrahydro-2H-pyran-2-yl)thio)-2-(4-hydroxy-1-methylpiperidin-4-yl)-N-isobutyl-N-methylacetamide [Example 2.40.200.] | IC50 [1, 4]: 0.08 µM
0.17 | CO[C@@H]1[C@@H](n2cc(-c3cc(F)c(F)c(F)c3)nn2)[C@@H](O)[C@@H](CO)O[C@H]1SC(C(=O)N1CCC(F)(F)CC1)C1(O)CCC2(CC2)CC1 (stereo partly drawn) [Example 2.67.226.1., 1-(4,4-Difluoropiperidin-1-yl)-2-(((2S,3R,4S,5R,6R)-5-hydroxy-6-(hydroxymethyl)-3-methoxy-4-(4-(3,4,5-trifluorophenyl)-1H-1,2,3-triazol-1-yl)tetrahydro-2H-pyran-2-yl)thio)-2-(6-hydroxyspiro[2.5]octan-6-yl)ethan-1-one] | IC50 ([1]; Table 13, hGal-3, read-out: IC50 (Gal-3 inhibition)): 0.12 µM
33.6 | CN(CC(F)(F)F)C(=O)[C@H](S[C@@H]1O[C@H](CO)[C@H](O)[C@H](n2cc(-c3cc(F)c(F)c(F)c3)nn2)[C@H]1O)C1(O)CCC1 [Example 2.34.219R., (R)-2-(((2S,3R,4S,5R,6R)-3,5-Dihydroxy-6-(hydroxymethyl)-4-(4-(3,4,5-trifluorophenyl)-1H-1,2,3-triazol-1-yl)tetrahydro-2H-pyran-2-yl)thio)-2-(1-hydroxycyclobutyl)-N-methyl-N-(2,2,2-trifluoroethyl)acetamide] | IC50 [1, 5]: 7.84 µM
1.9 | CN(CC1CC1)C(=O)[C@H](S[C@@H]1O[C@H](CO)[C@H](O)[C@H](n2cc(-c3cc(F)c(F)c(F)c3)nn2)[C@H]1O)C1(O)CCC(F)(F)CC1 [Example 2.44.218R., (R)-N-(Cyclopropylmethyl)-2-(4,4-difluoro-1-hydroxycyclohexyl)-2-(((2S,3R,4S,5R,6R)-3,5-dihydroxy-6-(hydroxymethyl)-4-(4-(3,4,5-trifluorophenyl)-1H-1,2,3-triazol-1-yl)tetrahydro-2H-pyran-2-yl)thio)-N-methylacetamide] | IC50 [1, 5]: 1.15 µM
0.04 | CN(CC1CC1)C(=O)[C@@H](S[C@@H]1O[C@H](CO)[C@H](O)[C@H](n2cc(-c3cc(F)c(F)c(F)c3)nn2)[C@H]1O)C1(O)CCC(F)(F)CC1 [Example 2.44.218S., (S)-N-(Cyclopropylmethyl)-2-(4,4-difluoro-1-hydroxycyclohexyl)-2-(((2S,3R,4S,5R,6R)-3,5-dihydroxy-6-(hydroxymethyl)-4-(4-(3,4,5-trifluorophenyl)-1H-1,2,3-triazol-1-yl)tetrahydro-2H-pyran-2-yl)thio)-N-methylacetamide] | IC50 [1, 5]: 0.05 µM
0.17 | CCN(C)C(=O)[C@@H](S[C@@H]1O[C@H](CO)[C@H](O)[C@H](n2cc(-c3cc(F)c(F)c(F)c3)nn2)[C@H]1O)C1(O)CCC1 [Example 2.34.203S., (S)-2-(((2S,3R,4S,5R,6R)-3,5-Dihydroxy-6-(hydroxymethyl)-4-(4-(3,4,5-trifluorophenyl)-1H-1,2,3-triazol-1-yl)tetrahydro-2H-pyran-2-yl)thio)-N-ethyl-2-(1-hydroxycyclobutyl)-N-methylacetamide] | IC50 [1, 5]: 0.12 µM
0.52 | O=C(C(S[C@@H]1O[C@H](CO)[C@H](O)[C@H](n2cc(-c3cc(F)c(F)c(F)c3)nn2)[C@H]1O)C1(O)CCC1)N1CCCCC1 (stereo partly drawn) [Example 2.34.208., 2-(((2S,3R,4S,5R,6R)-3,5-Dihydroxy-6-(hydroxymethyl)-4-(4-(3,4,5-trifluorophenyl)-1H-1,2,3-triazol-1-yl)tetrahydro-2H-pyran-2-yl)thio)-2-(1-hydroxycyclobutyl)-1-(piperidin-1-yl)ethan-1-one] | IC50 [1, 5]: 0.38 µM
0.19 | CN(CC1CC1)C(=O)C(S[C@@H]1O[C@H](CO)[C@H](O)[C@H](n2cc(-c3cc(F)c(F)c(F)c3)nn2)[C@H]1O)C1(O)CCOCC1 (stereo partly drawn) [Example 2.41.218., N-(Cyclopropylmethyl)-2-(((2S,3R,4S,5R,6R)-3,5-dihydroxy-6-(hydroxymethyl)-4-(4-(3,4,5-trifluorophenyl)-1H-1,2,3-triazol-1-yl)tetrahydro-2H-pyran-2-yl)thio)-2-(4-hydroxytetrahydro-2H-pyran-4-yl)-N-methylacetamide] | IC50 [1, 4]: 0.8 µM
35.9 | CCN(C)C(=O)C(S[C@@H]1O[C@H](CO)[C@H](O)[C@H](n2cc(-c3cc(F)c(F)c(F)c3)nn2)[C@H]1O)C(C)C (stereo partly drawn) [Example 2.53.203., 2-(((2S,3R,4S,5R,6R)-3,5-dihydroxy-6-(hydroxymethyl)-4-(4-(3,4,5-trifluorophenyl)-1H-1,2,3-triazol-1-yl)tetrahydro-2H-pyran-2-yl)thio)-N-ethyl-N,3-dimethylbutanamide, reference compound] | IC50 ([1]; Gal-3 inhibition, Table 1 (Reference Examples), read-out: IC50): 7.8 µM
0.31 | O=C(C(S[C@@H]1O[C@H](CO)[C@H](O)[C@H](n2cc(-c3cc(F)c(F)c(F)c3)nn2)[C@H]1O)C1(O)CCOCC1)N1CCc2ccccc21 (stereo partly drawn) [Example 2.41.209., 2-(((2S,3R,4S,5R,6R)-3,5-Dihydroxy-6-(hydroxymethyl)-4-(4-(3,4,5-trifluorophenyl)-1H-1,2,3-triazol-1-yl)tetrahydro-2H-pyran-2-yl)thio)-2-(4-hydroxytetrahydro-2H-pyran-4-yl)-1-(indolin-1-yl)ethan-1-one] | IC50 [1, 4]: 0.15 µM
0.16 | CCN(C)C(=O)C(S[C@@H]1O[C@H](CO)[C@H](O)[C@H](n2cc(-c3cccc(F)c3)nn2)[C@H]1O)C1(O)CCOCC1 (stereo partly drawn) [Example 1.41.203., N-Ethyl-2-(((2S,3R,4S,5R,6R)-4-(4-(3-fluorophenyl)-1H-1,2,3-triazol-1-yl)-3,5-dihydroxy-6-(hydroxymethyl)tetrahydro-2H-pyran-2-yl)thio)-2-(4-hydroxytetrahydro-2H-pyran-4-yl)-N-methylacetamide] | IC50 ([1]; Table 11, hGal-3, read-out: IC50 (Gal-3 inhibition)): 0.13 µM
4.43 | CCN(C)C(=O)[C@H](S[C@@H]1O[C@H](CO)[C@H](O)[C@H](n2cc(-c3cc(F)c(F)c(F)c3)nn2)[C@H]1O)C1(O)CCN(C(=O)NC2CC2)CC1 [Example 2.49.203R., (R)-N-Cyclopropyl-4-(1-(((2S,3R,4S,5R,6R)-3,5-dihydroxy-6-(hydroxymethyl)-4-(4-(3,4,5-trifluorophenyl)-1H-1,2,3-triazol-1-yl)tetrahydro-2H-pyran-2-yl)thio)-2-(ethyl(methyl)amino)-2-oxoethyl)-4-hydroxypiperidine-1-carboxamide] | IC50 ([1]; Table 8, hGal-3, read-out: IC50 (Gal-3 inhibition)): 2.65 µM
0.28 | CCN(Cc1ccccc1)C(=O)C(S[C@@H]1O[C@H](CO)[C@H](O)[C@H](n2cc(-c3cc(F)c(F)c(F)c3)nn2)[C@H]1OC)C1(O)CCC(F)(F)CC1 (stereo partly drawn) [Example 2.44.240.I.] | IC50 [1, 6]: 0.04 µM
0.03 | CCN(C(=O)[C@@H](S[C@@H]1O[C@H](CO)[C@H](O)[C@H](n2cc(-c3cc(F)c(F)c(F)c3)nn2)[C@H]1OC)C1(O)CCC(F)(F)CC1)C1CC1 [Example 2.44.238S.I.] | IC50 [1, 6]: 0.02 µM
5.73 | CO[C@@H]1[C@@H](n2cc(-c3cc(F)c(F)c(F)c3)nn2)[C@@H](O)[C@@H](CO)O[C@H]1S[C@@H](C(=O)N1CCC(F)(F)CC1)C1(O)CCC(F)(F)CC1 [Example 2.44.226R.I., (R)-2-(4,4-difluoro-1-hydroxycyclohexyl)-1-(4,4-difluoropiperidin-1-yl)-2-(((2S,3R,4S,5R,6R)-5-hydroxy-6-(hydroxymethyl)-3-methoxy-4-(4-(3,4,5-trifluorophenyl)-1H-1,2,3-triazol-1-yl)tetrahydro-2H-pyran-2-yl)thio)ethan-1-one] | IC50 [1, 3]: 0.89 µM
